Patent publication US20030050306A1, “Novel heteroaryl derivatives, their preparation and use” (H. Lundbeck A/S, priority 1999, published 2003)

Key:
[1] = target: T1, cloned human 5-HT1A receptors (Homo sapiens, UniProt P08908); assay: Inhibition of 3H-5-CT binding to human 5-HT1A receptors; settings: cloned human 5-HT1A receptors in HeLa cells (HA7); for inhibition at 0.1 µM / Inhibition of 3H-5-CT Binding % inhibition at 100 nM: at 100 nM
T1 construct: expressed in transfected cells; host or cells: HeLa cells (HA7)
T1 sequence (P08908 1-422): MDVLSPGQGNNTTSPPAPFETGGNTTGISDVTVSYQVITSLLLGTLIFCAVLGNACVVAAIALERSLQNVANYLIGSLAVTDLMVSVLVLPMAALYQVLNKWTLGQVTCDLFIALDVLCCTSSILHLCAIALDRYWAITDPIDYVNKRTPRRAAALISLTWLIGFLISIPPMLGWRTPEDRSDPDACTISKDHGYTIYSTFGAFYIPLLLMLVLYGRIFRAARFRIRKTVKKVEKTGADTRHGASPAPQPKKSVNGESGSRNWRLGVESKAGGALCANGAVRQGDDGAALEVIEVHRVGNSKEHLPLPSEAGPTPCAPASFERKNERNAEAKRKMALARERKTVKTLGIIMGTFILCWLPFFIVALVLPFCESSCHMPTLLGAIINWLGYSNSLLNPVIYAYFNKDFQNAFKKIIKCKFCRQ
Experimental: The affinity of the compounds of the invention to 5-HT1A receptors was determined by measuring the inhibition of binding of a radioactive ligand at 5-HT1A receptors as described in the following test:
Inhibition of ^3H-5-CT Binding to Human 5-HT1A Receptors
By this method the inhibition by drugs of the binding of the 5-HT1A agonist ^3H-5-carboxamido tryptamine (3H-5-CT) to cloned human 5-HT1A receptors stably expressed in transfected HeLa cells (HA7) (Fargin, A. et al, J. Biol. Chem., 1989, 264, 14848) is determined in vitro. The assay was performed as a modification of the method described by Harrington, M. A. et at, J. Pharmacol. Exp. Ther., 1994, 268, 1098. Human 5-HT1A receptors (40 μg of cell homogenate) were incubated for 15 minutes at 37° C. in 50 mM Tris buffer at pH 7.7 in the presence of ^3H-5-CT. Non-specific binding was determined by including 10 μM of metergoline. The reaction was terminated by rapid filtration through Unifilter GF/B filters on a Tomtec Cell Harvester. Filters were counted in a Packard Top Counter.

[2] = target: T2, human cloned dopamine D4.2 receptors (Homo sapiens, UniProt P21917, DEL265-296); assay: Inhibition of the binding of 3H-YM-09151-2 to human dopamine D4 receptors; settings: human cloned dopamine D4.2 receptors in CHO-cells; for inhibition at 0.05 µM / Inhibition of 3H-YM-09151-2 binding % inhibition at 50 nM: at 50 nM
T2 construct: expressed in transfected cells; host or cells: CHO cells
T2 sequence (P21917 with tags, fused parts or gaps DEL265-296): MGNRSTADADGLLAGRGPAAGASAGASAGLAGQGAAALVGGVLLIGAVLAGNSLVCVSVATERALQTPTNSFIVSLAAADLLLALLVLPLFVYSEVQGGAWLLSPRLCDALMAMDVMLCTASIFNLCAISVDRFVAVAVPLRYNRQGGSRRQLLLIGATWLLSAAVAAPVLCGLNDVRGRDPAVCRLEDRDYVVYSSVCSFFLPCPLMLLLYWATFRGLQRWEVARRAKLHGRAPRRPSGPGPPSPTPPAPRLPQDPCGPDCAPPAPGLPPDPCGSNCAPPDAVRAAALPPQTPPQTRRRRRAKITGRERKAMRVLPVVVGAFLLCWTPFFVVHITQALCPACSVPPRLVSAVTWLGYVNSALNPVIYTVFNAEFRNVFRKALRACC
Experimental: The compounds of the invention have also been tested for their affinity to dopamine D4 receptors in the following test.
Inhibition of the Binding of ^3H-YM-09151-2 to Human Dopamine D4 Receptors
By this method the inhibition by drugs of the binding of [^3H]YM-09151-2 (0.06 nM) to membranes of human cloned dopamine D4.2 receptors expressed in CHO-cells is determined in vitro. Method modified from NEN Life Science Products, Inc., technical data certificate PC2533-10/96.

Structure (SMILES) | inhibition at 0.1 µM [1] [%] | inhibition at 0.05 µM [2] [%] | also measured
Cc1cc(F)ccc1OCCCN1CCN(c2ccc(C#N)c3c2OCCO3)CC1 [Compound 6a, 8-{4-[3-(4-Fluoro-2-methyl-phenoxy)-propyl]-piperazin-1-yl}-2,3-dihydro-benzo[1,4]dioxine-5-carbonitrile] | – | – | IC50 [1]: 120 nM; IC50 [2]: 6.9 nM
N#Cc1ccc(N2CCN(CCCOc3ccc(F)cc3Br)CC2)c2c1OCCO2 [Compound 6b, 8-{4-[3-(2-Bromo-4-fluoro-phenoxy)-propyl]-piperazin-1-yl}-2,3-dihydro-benzo[1,4]dioxine-5-carbonitrile] | – | – | IC50 [1]: 230 nM; IC50 [2]: 10 nM
N#Cc1ccc(N2CCN(CCCOc3ccccc3Cl)CC2)c2c1OCCO2 [Compound 6c, 8-{4-[3-(2-Chloro-phenoxy)-propyl]-piperazin-1-yl}-2,3-dihydro-benzo[1,4]dioxine-5-carbonitrile] | – | – | IC50 [1]: 68 nM; IC50 [2]: 13 nM
c1ccc(SCCN2CCN(c3cccc4c3OCCO4)CC2)cc1 [Compound 7aa, 1-(2,3-Dihydro-benzo[1,4]dioxin-5-yl)-4-(2-phenylsulfanyl-ethyl)-piperazine] | 78 | 84 | –
Cc1cccc(C)c1OCCN1CCN(c2cccc3c2OCCO3)CC1 [Compound 7ab, 1-(2,3-Dihydro-benzo[1,4]dioxin-5-yl)-4-[2-(2,6-dimethyl-phenoxy)-ethyl]-piperazine] | 86 | 91 | –
FC(F)(F)c1ccccc1OCCN1CCN(c2cccc3c2OCCO3)CC1 [Compound 7ae, 1-(2,3-Dihydro-benzo[1,4]dioxin-5-yl)-4-[2-(2-trifluoromethyl-phenoxy)-ethyl]-piperazine] | 82 | 75 | –
CCc1ccccc1OCCN1CCN(c2cccc3c2OCCO3)CC1 [Compound 7ag, 1-(2,3-Dihydro-benzo[1,4]dioxin-5-yl)-4-[2-(2-ethyl-phenoxy)-ethyl]-piperazine] | 79 | 88 | –
C=CCc1cccc(Cl)c1OCCN1CCN(c2cccc3c2OCCO3)CC1 [Compound 7ai, 1-[2-(2-Allyl-6-chloro-phenoxy)-ethyl]-4-(2,3-dihydro-benzo[1,4]dioxin-5-yl)-piperazine] | 90 | 82 | –
Clc1cccc(SCCCN2CCN(c3cccc4c3OCCO4)CC2)c1Cl [Compound 7al, 1-[3-(2,3-Dichloro-phenylsulfanyl)-propyl]-4-(2,3-dihydro-benzo[1,4]dioxin-5-yl)-piperazine] | 98 | 97 | –
Clc1ccc(SCCCN2CCN(c3cccc4c3OCCO4)CC2)cc1Cl [Compound 7am, 1-[3-(3,4-Dichloro-phenylsulfanyl)-propyl]-4-(2,3-dihydro-benzo[1,4]dioxin-5-yl)-piperazine] | 100 | 99 | –
Clc1ccc(SCCCCN2CCN(c3cccc4c3OCCO4)CC2)cc1Cl [Compound 7an, 1-[4-(3,4-Dichloro-phenylsulfanyl)-butyl]-4-(2,3-dihydro-henzo[1,4]dioxin-5-yl)-piperazine] | – | – | Inhibition of 3H-5-CT Binding % inhibition at 100 nM [1]: 100%; Inhibition of 3H-YM-09151-2 binding % inhibition at 50 nM [2]: 91%
Clc1ccc(SCCN2CCN(c3cccc4c3OCCO4)CC2)c(Cl)c1 [Compound 7ap, 1-[2-(2,4-Dichloro-phenylsulfanyl)-ethyl]-4-(2,3-dihydro-henzo[1,4]dioxin-5-yl)-piperazine] | – | – | Inhibition of 3H-5-CT Binding % inhibition at 100 nM [1]: 91%; Inhibition of 3H-YM-09151-2 binding % inhibition at 50 nM [2]: 78%
Clc1ccc(SCCCCN2CCN(c3cccc4c3OCCO4)CC2)c(Cl)c1 [Compound 7ar, 1-[4-(2,4-Dichloro-phenylsulfanyl)-butyl]-4-(2,3-dihydro-benzo[1,4]dioxin-5-yl)-piperazine] | – | 99 | IC50 [1]: 3.8 nM
Clc1ccc(Cl)c(SCCN2CCN(c3cccc4c3OCCO4)CC2)c1 [Compound 7at, 1-[2-(2,5-Dichloro-phenylsulfanyl)-ethyl]-4-(2,3-dihydro-henzo[1,4]dioxin-5-yl)-piperazine] | – | – | Inhibition of 3H-5-CT Binding % inhibition at 100 nM [1]: 88%; Inhibition of 3H-YM-09151-2 binding % inhibition at 50 nM [2]: 92%
Clc1cccc(SCCN2CCN(c3cccc4c3OCCO4)CC2)c1 [Compound 7au, 1-[2-(3-Chloro-phenylsulfanyl)-ethyl]-4-(2,3-dihydro-benzo[1,4]dioxin-5-yl)-piperazine] | 84 | 87 | –

Further lines, with some results ahead:

inhibition at 0.1 µM [1] [%] | inhibition at 0.05 µM [2] [%] | Structure (SMILES) | also measured
83 | 42 | N#Cc1ccc(N2CCN(CCCOc3c(Cl)cccc3Cl)CC2)c2c1OCCO2 [Compound 5cl, 8-{4-[3-(2,6-Dichloro-phenoxy)-propyl]-piperazin-1-yl}-2,3-dihydro-benzo[1,4]dioxine-5-carbonitrile] | –
96 | 96 | Cc1cccc(C)c1SCCCCN1CCN(c2cccc3c2OCCO3)CC1 [Compound 7ac, 1-(2,3-Dihydro-benzo[1,4]dioxin-5-yl)-4-[4-(2,6-dimethyl-phenylsulfanyl)-butyl]-piperazine] | –
– | 91 | Cc1ccc(SCCN2CCN(c3cccc4c3OCCO4)CC2)c(C)c1 [Compound 7ad, 1-(2,3-Dihydro-benzo[1,4]dioxin-5-yl)-4-[2-(2,4-dimethyl-phenylsulfanyl)-ethyl]-piperazine] | IC50 [1]: 21 nM
99 | 91 | FC(F)(F)c1ccccc1SCCN1CCN(c2cccc3c2OCCO3)CC1 [Compound 7af, 1-(2,3-Dihydro-benzo[1,4]dioxin-5-yl)-4-[2-(2-trifluoromethyl-phenylsulfanyl)-ethyl]-piperazine] | –
– | 87 | Clc1cccc(SCCN2CCN(c3cccc4c3OCCO4)CC2)c1Cl [Compound 7ah, 1-[2-(2,3-Dichloro-phenylsulfanyl)-ethyl]-4-(2,3-dihydro-benzo[1,4]dioxin-5-yl)-piperazine] | IC50 [1]: 1.6 nM
99 | 84 | Cc1ccc(SCCCN2CCN(c3cccc4c3OCCO4)CC2)c(C)c1 [Compound 7aj, 1-(2,3-Dihydro-benzo[1,4]dioxin-5-yl)-4-[3-(2,4-dimethyl-phenylsulfanyl)-propyl]-piperazine] | –
93 | 98 | FC(F)(F)c1ccccc1SCCCN1CCN(c2cccc3c2OCCO3)CC1 [Compound 7ak, 1-(2,3-Dihydro-benzo[1,4]dioxin-5-yl)-4-[3-(2-trifluoromethyl-phenylsulfanyl)-propyl]-piperazine] | –
97 | 89 | Cc1ccc(Cl)c(OCCCCN2CCN(c3cccc4c3OCCO4)CC2)c1 [Compound 7ao, 1-[4-(2-Chloro-5-methyl-phenoxy)-butyl]-4-(2,3-dihydro-benzo[1,4]dioxin-5-yl)-piperazine] | –
101 | 82 | Cc1cccc(SCCCN2CCN(c3cccc4c3OCCO4)CC2)c1 [Compound 7aq, 1-(2,3-Dihydro-benzo[1,4]dioxin-5-yl)-4-(3-m-tolylsulfanyl-propyl)-piperazine] | –
80 | 93 | CCc1ccccc1SCCN1CCN(c2cccc3c2OCCO3)CC1 [Compound 7as, 1-(2,3-Dihydro-benzo[1,4]dioxin-5-yl)-4-[2-(2-ethyl-phenylsulfanyl)-ethyl]-piperazine] | –
